These results are taken from patent publication US20240206516A1, “SYSTEMS AND METHODS FOR SUGAR-REDUCTION AND/OR FIBER PRODUCTION FOR FOOD AND OTHER APPLICATIONS” (President and Fellowa of Harvard College, priority 2021, published 2024).

The target in one test is glucose oxidase (Aspergillus niger, UniProt P13006). The test is described as follows: Enzymatic activity of glucose oxidase in the presence of polyphenol and metal ions at different pH. Format: biochemical. The method, then: Enzymatic activity of glucose oxidase was tested in the presence of polyphenol and metal ions from minerals at different pH. Polyphenol is known to be able to bind to enzymes and also form metal coordination with the metal ions.
The enzyme (e.g, glucose oxidase) was combined with different polyphenols (e.g., tannic acid, EGCG) and metal ions from different minerals (e.g., CaCl2, FeCl3, MgCl2, ZnCl2) in buffer solutions having two pH conditions. A buffer having a first pH condition of 3.5 was used to simulate juice buffer. A buffer having a second pH condition of 7 was used to simulate intestinal buffer. The effect of bile salt (an intrinsic compound found in the intestine) on enzymatic activity of glucose oxidase was also tested by incorporating it into the simulated pH 7 intestinal buffer. It should be noted that the enzyme in FIG. 4 is not limited to glucose oxidase, as described in this example. Any appropriate enzymes described elsewherein herein (e.g., inulosucrase, etc.) may be employed using the experimental design in FIG. 4 for sugar reduction.
The enzyme activity of glucose oxidase was measured by measuring the capability of glucose oxidase to convert glucose in different experimental conditions. […] It was hypothesized that at a pH of 7, polyphenol formed metal coordination complexes with metal ions and thus dissociated from the glucose oxidase.
A similar trend in […] was observed when a different polyphenol, EGCE, was used instead of tannic acid.

For another test, the target named is T1, inulosucrase (Lactobacillus gasseri, UniProt D3WYV9).
T1 sequence (D3WYV9 37-761): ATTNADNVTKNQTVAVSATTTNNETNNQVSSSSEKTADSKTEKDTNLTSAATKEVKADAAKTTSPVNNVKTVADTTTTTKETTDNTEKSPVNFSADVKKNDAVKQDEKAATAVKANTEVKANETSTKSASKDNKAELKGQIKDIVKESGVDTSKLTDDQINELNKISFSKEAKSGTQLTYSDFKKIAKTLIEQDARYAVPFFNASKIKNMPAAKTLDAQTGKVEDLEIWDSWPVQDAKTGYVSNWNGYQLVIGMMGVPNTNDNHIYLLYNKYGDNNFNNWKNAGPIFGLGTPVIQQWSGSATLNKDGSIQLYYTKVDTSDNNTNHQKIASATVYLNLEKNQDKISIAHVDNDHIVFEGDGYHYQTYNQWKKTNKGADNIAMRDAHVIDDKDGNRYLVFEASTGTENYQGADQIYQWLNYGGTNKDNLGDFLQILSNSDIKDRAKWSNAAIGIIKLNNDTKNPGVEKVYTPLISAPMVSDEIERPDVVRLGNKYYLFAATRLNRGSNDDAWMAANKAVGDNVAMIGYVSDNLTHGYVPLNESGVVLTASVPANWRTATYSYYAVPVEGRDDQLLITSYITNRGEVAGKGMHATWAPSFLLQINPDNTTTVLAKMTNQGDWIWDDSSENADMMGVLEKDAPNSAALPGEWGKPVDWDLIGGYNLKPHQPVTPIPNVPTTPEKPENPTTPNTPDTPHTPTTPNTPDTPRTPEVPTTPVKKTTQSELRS
Kind of test: Inhibition of inulosucrase enzymatic activity by tannic acid. Format: biochemical. The method, then: In addition to encapsulating the inulosucrase-nanocellulose complex, an inhibitor (e.g., tannic acid) could also be encapsulated together with the complex. The amount of tannic acid necessary to inhibit enzymatic activity of inulosucrase (while attached to nanocellulose) is shown in FIG. 19. […] The effect of inulosucrase in various food products were studied. Free inulosucrase (not attached to any substrate) was added to a beverage (e.g., Capri San®) and the concentration of various saccharides was measured after 10 minutes at room temperature and 37° C. (FIG. 20A). […] Additional data for other food products (e.g., chocolates) are illustrated in FIGS. 20B-20C.
The effect of tannic acid on enzymatic activity in various food products at different pH conditions was studied. Tannic acid was combined with an enzyme (e.g., inulosucrase) at 1:1 molar ratio to form tannic acid-enzyme (TA-Enz) complex. The TA-Enz complex was prepared at various pH levels (e.g., 3.5, 5.5) and tannic acid concentrations (e.g., 10 mM, 30 mM, 50 mM). The effect of TA-Enz complex in sucrose solution and apple juice was compared to that of free enzyme (enzyme not complexed with tannic acid). Residual sucrose of sucrose solution and apple juice was first monitored in the presence of TA-Enz complexes after an incubation time of 15 minutes.
Residual sucrose of sucrose solution and apple juice was also monitored in the presence of TA-Enz complexes after an incubation time of 24 hours (FIGS. 23A-23B).

[1] abbreviates: pH 3.5 (simulated juice buffer), polyphenol with Mg^+2 (from MgCl2).
[2] abbreviates: pH 7 (simulated intestinal buffer), polyphenol with Mg^+2.
Setting [3] is: pH 7 with bile salt (0.2 wt %), polyphenol with Mg^+2.

Chain of glucose oxidase (P13006 17-605, species assumed): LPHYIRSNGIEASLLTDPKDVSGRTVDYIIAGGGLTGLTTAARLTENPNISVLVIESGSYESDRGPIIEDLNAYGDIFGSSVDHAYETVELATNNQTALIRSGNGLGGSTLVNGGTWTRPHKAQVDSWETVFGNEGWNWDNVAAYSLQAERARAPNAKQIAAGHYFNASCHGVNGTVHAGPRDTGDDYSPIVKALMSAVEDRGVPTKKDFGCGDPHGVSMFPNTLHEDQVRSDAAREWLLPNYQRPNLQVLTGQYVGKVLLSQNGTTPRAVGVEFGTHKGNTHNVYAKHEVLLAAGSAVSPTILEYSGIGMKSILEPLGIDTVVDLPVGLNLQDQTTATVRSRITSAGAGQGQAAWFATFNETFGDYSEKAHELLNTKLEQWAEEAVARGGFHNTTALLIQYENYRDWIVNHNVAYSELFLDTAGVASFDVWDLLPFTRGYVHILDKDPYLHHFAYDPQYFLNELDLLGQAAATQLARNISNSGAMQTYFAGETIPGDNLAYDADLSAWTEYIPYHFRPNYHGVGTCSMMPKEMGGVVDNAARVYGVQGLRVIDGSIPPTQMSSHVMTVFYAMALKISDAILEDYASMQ

In the case of `O=C(O[C@@H]1Cc2c(O)cc(O)cc2O[C@@H]1c1cc(O)c(O)c(O)c1)c1cc(O)c(O)c(O)c1` [EGCE, Epigallocatechin gallate], the “enzymatic activity of glucose oxidase” value is given as “prohibited its enzymatic activity” at glucose oxidase (setting [1]), “partially recovered” on glucose oxidase (setting [2]) and “further enzymatic activity was recovered” at glucose oxidase (setting [3]).

`O=C(OC[C@H]1O[C@@H](OC(=O)c2cc(O)c(O)c(OC(=O)c3cc(O)c(O)c(O)c3)c2)[C@H](OC(=O)c2cc(O)c(O)c(OC(=O)c3cc(O)c(O)c(O)c3)c2)[C@@H](OC(=O)c2cc(O)c(O)c(OC(=O)c3cc(O)c(O)c(O)c3)c2)[C@@H]1OC(=O)c1cc(O)c(O)c(OC(=O)c2cc(O)c(O)c(O)c2)c1)c1cc(O)c(O)c(OC(=O)c2cc(O)c(O)c(O)c2)c1` [tannic acid]: the “concentration at which glucose oxidase activity was significantly inhibited” value at glucose oxidase is 1 µM. Also, the “enzymatic activity of glucose oxidase” value at glucose oxidase (setting [1]) is reported as “further inhibited”; at glucose oxidase (setting [2]), “partially recovered”; at glucose oxidase (setting [3]), “furthered recovered”. Besides, the “inulosucrase activity after polyphenol inhibition” value on inulosucrase (in the presence of bile salts) is reported as “reactivated in the presence of bile salts”. Also, at inulosucrase (low pH ˜3.5 vs higher pH ˜6.8), the “pH-dependent inhibition and reactivation of enzymatic activity” value is “repeated inhibition of enzymatic activity at low pH (e.g., pH˜3.5) and reactivation of enzymatic activity at higher pH (e.g., pH˜6.8)”. Besides, the “enzymatic activity of inulosucrase (attached to nanocellulose)” value at inulosucrase (with increase in tannic acid concentration) was “reduction in enzymatic activity”.
